# In ChEMBL document CHEMBL1143346, “Solid-phase parallel synthesis and SAR of 4-amidofuran-3-one inhibitors of cathepsin S: effect of sulfonamides P3 substituents on potency and selectivity” (Bioorg Med Chem, 2009):
# Experiments:
# [1] = target: Cathepsin S (Homo sapiens, UniProt P25774); test: Inhibition of human recombinant cathepsin S expressed in baculovirus by fluorescence assay
# [2] = target: Procathepsin L (Homo sapiens, UniProt P07711); test: Inhibition of human cathepsin L by fluorescence assay
# Sequence of Procathepsin L (P07711 whole entry): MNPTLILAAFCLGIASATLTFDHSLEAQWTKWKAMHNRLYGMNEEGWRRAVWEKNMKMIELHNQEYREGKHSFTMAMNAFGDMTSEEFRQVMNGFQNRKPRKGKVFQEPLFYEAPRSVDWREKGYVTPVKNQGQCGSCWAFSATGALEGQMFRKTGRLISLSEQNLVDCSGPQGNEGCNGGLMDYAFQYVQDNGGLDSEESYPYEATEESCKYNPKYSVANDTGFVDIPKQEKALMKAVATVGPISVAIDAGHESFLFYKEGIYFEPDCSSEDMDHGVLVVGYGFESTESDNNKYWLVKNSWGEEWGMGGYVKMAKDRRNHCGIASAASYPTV
# [3] = target: T1, Cathepsin K (Homo sapiens, UniProt P43235); test: Inhibition of human recombinant cathepsin K expressed in baculovirus by fluorescence assay
# T1 sequence (P43235 whole entry): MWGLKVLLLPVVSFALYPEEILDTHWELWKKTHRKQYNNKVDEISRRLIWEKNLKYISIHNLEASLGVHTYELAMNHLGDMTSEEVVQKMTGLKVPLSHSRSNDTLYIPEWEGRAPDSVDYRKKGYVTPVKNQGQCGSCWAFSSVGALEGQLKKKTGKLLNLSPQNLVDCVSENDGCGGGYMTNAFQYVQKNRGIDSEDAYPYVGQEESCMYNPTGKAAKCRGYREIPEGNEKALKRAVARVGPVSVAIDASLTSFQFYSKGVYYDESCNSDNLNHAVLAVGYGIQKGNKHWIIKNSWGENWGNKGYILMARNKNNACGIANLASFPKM
# Sequence of Cathepsin S (P25774 whole entry): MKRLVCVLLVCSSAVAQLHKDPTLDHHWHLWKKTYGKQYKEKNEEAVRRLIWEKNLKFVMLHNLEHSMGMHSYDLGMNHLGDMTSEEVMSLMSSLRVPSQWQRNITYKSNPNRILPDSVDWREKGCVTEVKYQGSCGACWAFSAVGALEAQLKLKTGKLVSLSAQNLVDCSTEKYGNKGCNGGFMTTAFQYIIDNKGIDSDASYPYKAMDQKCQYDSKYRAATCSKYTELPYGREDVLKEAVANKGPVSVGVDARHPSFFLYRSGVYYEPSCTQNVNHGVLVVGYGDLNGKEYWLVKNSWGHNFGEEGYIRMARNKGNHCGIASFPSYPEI
Compound,Ki [1],Ki [2],Ki [3]
CC[C@@H]1OCC(=O)[C@H]1NC(=O)[C@H](CC1(C)CCCC1)NC(=O)c1ccc(NS(=O)(=O)c2ccccc2)cc1,0.8 nM,11000 nM,430 nM
CC[C@@H]1OCC(=O)[C@H]1NC(=O)[C@H](CC(C)(C)C)NC(=O)c1ccsc1,31 nM,10000 nM,318 nM
CC[C@@H]1OCC(=O)[C@H]1NC(=O)[C@H](CC1(C)CCCC1)NC(=O)c1ccc(NS(=O)(=O)c2ccccc2C#N)cc1,0.8 nM,8500 nM,820 nM
CC[C@@H]1OCC(=O)[C@H]1NC(=O)[C@H](CC1(C)CCCC1)NC(=O)c1ccc(NS(=O)(=O)c2sc(C)nc2C)cc1,0.7 nM,16000 nM,1800 nM
CC[C@@H]1OCC(=O)[C@H]1NC(=O)[C@H](CC1(C)CCCC1)NC(=O)c1ccc(NS(=O)(=O)c2ccc(C#N)cc2)cc1,1.1 nM,7900 nM,950 nM
CC[C@@H]1OCC(=O)[C@H]1NC(=O)[C@H](CC1(C)CCCC1)NC(=O)c1ccc(NS(=O)(=O)C2CCCCC2)cc1,180 nM,64000 nM,950 nM
CC[C@@H]1OCC(=O)[C@H]1NC(=O)[C@H](CC1(C)CCCC1)NC(=O)c1ccc(NS(=O)(=O)c2ccccc2)nc1,56 nM,31000 nM,2200 nM
CC[C@@H]1OCC(=O)[C@H]1NC(=O)[C@H](CC1(C)CCCC1)NC(=O)c1ccc(NS(=O)(=O)c2cccs2)cc1,2.3 nM,13000 nM,1000 nM
CC[C@@H]1OCC(=O)[C@H]1NC(=O)[C@H](CC1(C)CCCC1)NC(=O)c1ccc(NS(=O)(=O)c2cccc(C#N)c2)cc1,0.6 nM,6800 nM,730 nM
CC[C@@H]1OCC(=O)[C@H]1NC(=O)[C@H](CC1(C)CCCC1)NC(=O)c1ccc(NS(=O)(=O)Cc2ccccc2)cc1,31 nM,15000 nM,1700 nM
CC[C@@H]1OCC(=O)[C@H]1NC(=O)[C@H](CC1(C)CCCC1)NC(=O)c1ccc(NS(=O)(=O)c2cnccc2C)cc1,0.9 nM,8700 nM,260 nM
CC[C@@H]1OCC(=O)[C@H]1NC(=O)[C@H](CC1(C)CCCC1)NC(=O)c1ccc(NS(=O)(=O)c2ccncc2)cc1,2.7 nM,13000 nM,1100 nM
CC[C@@H]1OCC(=O)[C@H]1NC(=O)[C@H](CC1(C)CCCC1)NC(=O)c1ccc(NS(=O)(=O)c2ccc(OC)cc2)cc1,3.3 nM,11000 nM,500 nM
CC[C@@H]1OCC(=O)[C@H]1NC(=O)[C@H](CC1(C)CCCC1)NC(=O)c1ccc(NS(=O)(=O)c2ccccn2)cc1,2.3 nM,13000 nM,450 nM
CC[C@@H]1OCC(=O)[C@H]1NC(=O)[C@H](CC1(C)CCCC1)NC(=O)c1ccc(NS(=O)(=O)c2nc(C(C)C)cs2)cc1,5.7 nM,9100 nM,1700 nM
CC[C@@H]1OCC(=O)[C@H]1NC(=O)[C@H](CC1(C)CCCC1)NC(=O)c1ccc(NS(=O)(=O)c2ccc(N)cc2)cc1,1.3 nM,9100 nM,950 nM
CC[C@@H]1OCC(=O)[C@H]1NC(=O)[C@H](CC1(C)CCCC1)NC(=O)c1ccc(NS(=O)(=O)c2cccc(OC)c2)cc1,1 nM,14000 nM,270 nM
CC[C@@H]1OCC(=O)[C@H]1NC(=O)[C@H](CC1(C)CCCC1)NC(=O)c1ccc(NS(=O)(=O)c2ccccc2C)cc1,3.9 nM,8400 nM,550 nM
CC[C@@H]1OCC(=O)[C@H]1NC(=O)[C@H](CC1(C)CCCC1)NC(=O)c1ccc(NS(=O)(=O)c2cccnc2)cc1,2.1 nM,14000 nM,570 nM
CC[C@@H]1OCC(=O)[C@H]1NC(=O)[C@H](CC1(C)CCCC1)NC(=O)c1ccc(NS(=O)(=O)c2cccnc2Cl)cc1,5.9 nM,23000 nM,800 nM

# Second part, the molecule after the results:
Ki [1],Ki [2],Ki [3],Compound
63 nM,14000 nM,1200 nM,CC[C@@H]1OCC(=O)[C@H]1NC(=O)[C@H](CC1(C)CCCC1)NC(=O)c1ccc(NS(C)(=O)=O)nc1
3.4 nM,21000 nM,1500 nM,CCCCS(=O)(=O)Nc1ccc(C(=O)N[C@@H](CC2(C)CCCC2)C(=O)N[C@@H]2C(=O)CO[C@H]2CC)cc1
110 nM,11000 nM,98 nM,CC[C@@H]1OCC(=O)[C@H]1NC(=O)[C@H](CC1(C)CCCC1)NC(=O)c1ccc(N(C)S(C)(=O)=O)cc1
13 nM,27000 nM,3000 nM,CC[C@@H]1OCC(=O)[C@H]1NC(=O)[C@H](CC1(C)CCCC1)NC(=O)c1ccc(NS(=O)(=O)c2nc(C)cs2)cc1
16 nM,7800 nM,700 nM,CC[C@@H]1OCC(=O)[C@H]1NC(=O)[C@H](CC1(C)CCCC1)NC(=O)c1ccc(NS(C)(=O)=O)c(F)c1
57 nM,9500 nM,750 nM,CC[C@@H]1OCC(=O)[C@H]1NC(=O)[C@H](CC1(C)CCCC1)NC(=O)c1ccc(NS(C)(=O)=O)c(C(C)=O)c1
3.8 nM,11000 nM,980 nM,CC[C@@H]1OCC(=O)[C@H]1NC(=O)[C@H](CC1(C)CCCC1)NC(=O)c1ccc(NS(=O)(=O)c2ccccc2F)cc1
12 nM,2500 nM,1500 nM,CC[C@@H]1OCC(=O)[C@H]1NC(=O)[C@H](CC1(C)CCCC1)NC(=O)c1cccc(NS(C)(=O)=O)c1
26 nM,7200 nM,560 nM,CC[C@@H]1OCC(=O)[C@H]1NC(=O)[C@H](CC1(C)CCCC1)NC(=O)c1ccc(NS(C)(=O)=O)c(OC)c1
4.5 nM,24000 nM,640 nM,CC[C@@H]1OCC(=O)[C@H]1NC(=O)[C@H](CC1(C)CCCC1)NC(=O)c1ccc(NS(=O)(=O)c2nccn2C)cc1
2.9 nM,15000 nM,500 nM,CC[C@@H]1OCC(=O)[C@H]1NC(=O)[C@H](CC1(C)CCCC1)NC(=O)c1ccc(NS(=O)(=O)C(C)C)cc1
12 nM,1100 nM,1600 nM,CC[C@@H]1OCC(=O)[C@H]1NC(=O)[C@H](CC1(C)CCCC1)NC(=O)c1ccc(NS(=O)(=O)c2ccccc2)c(Cl)c1
30 nM,23000 nM,1900 nM,CC[C@@H]1OCC(=O)[C@H]1NC(=O)[C@H](CC1(C)CCCC1)NC(=O)c1ccc(NS(C)(=O)=O)cc1C
4.9 nM,2000 nM,240 nM,CC[C@@H]1OCC(=O)[C@H]1NC(=O)[C@H](CC1(C)CCCC1)NC(=O)c1ccc(NS(C)(=O)=O)c(C)c1
3.4 nM,7800 nM,520 nM,CC[C@@H]1OCC(=O)[C@H]1NC(=O)[C@H](CC1(C)CCCC1)NC(=O)c1ccc(NS(=O)(=O)c2cccc(F)c2)cc1
8.3 nM,15000 nM,1200 nM,CC[C@@H]1OCC(=O)[C@H]1NC(=O)[C@H](CC1(C)CCCC1)NC(=O)c1ccc(NS(=O)(=O)C(F)(F)F)cc1
140 nM,27000 nM,420 nM,CC[C@@H]1OCC(=O)[C@H]1NC(=O)[C@H](CC1(C)CCCC1)NC(=O)c1ccc(S(=O)(=O)NC)cc1
2 nM,5900 nM,370 nM,CC[C@@H]1OCC(=O)[C@H]1NC(=O)[C@H](CC1(C)CCCC1)NC(=O)c1ccc(NS(=O)(=O)c2ccc(F)cc2)cc1
1.9 nM,17000 nM,470 nM,CC[C@@H]1OCC(=O)[C@H]1NC(=O)[C@H](CC1(C)CCCC1)NC(=O)c1ccc(NS(=O)(=O)CC)cc1
4 nM,2300 nM,730 nM,CC[C@@H]1OCC(=O)[C@H]1NC(=O)[C@H](CC1(C)CCCC1)NC(=O)c1ccc(NS(=O)(=O)c2ccccc2)c(C)c1
330 nM,29000 nM,5000 nM,CC[C@@H]1OCC(=O)[C@H]1NC(=O)[C@H](CC1(C)CCCC1)NC(=O)c1ccc(NS(C)(=O)=O)cc1OC
2.4 nM,12000 nM,440 nM,CC[C@@H]1OCC(=O)[C@H]1NC(=O)[C@H](CC1(C)CCCC1)NC(=O)c1ccc(NS(=O)(=O)C2CC2)cc1
5.6 nM,970 nM,840 nM,CC[C@@H]1OCC(=O)[C@H]1NC(=O)[C@H](CC1(C)CCCC1)NC(=O)c1ccc(NS(C)(=O)=O)c(Cl)c1
8.6 nM,17000 nM,2300 nM,CC[C@@H]1OCC(=O)[C@H]1NC(=O)[C@H](CC1(C)CCCC1)NC(=O)c1ccc(NS(=O)(=O)c2ncc(C)s2)cc1
5.3 nM,16000 nM,300 nM,CC[C@@H]1OCC(=O)[C@H]1NC(=O)[C@H](CC1(C)CCCC1)NC(=O)c1ccc(NS(=O)(=O)N(C)C)cc1
2.6 nM,12000 nM,290 nM,CC[C@@H]1OCC(=O)[C@H]1NC(=O)[C@H](CC1(C)CCCC1)NC(=O)c1ccc(NS(C)(=O)=O)cc1
190 nM,15000 nM,23000 nM,CC[C@@H]1OCC(=O)[C@H]1NC(=O)[C@H](CC1(C)CCCC1)NC(=O)c1cccc(S(=O)(=O)NC)c1
